Measurements reported in ChEMBL document CHEMBL1933062, “Synthesis of purine N9-[2-hydroxy-3-O-(phosphonomethoxy)propyl] derivatives and their side-chain modified analogs as potential antimalarial agents” (Bioorg Med Chem, 2012).
The source made the active and inactive calls. The calls are words filed in the database; no cut-off is given here.

Assays:
[1] = Selectivity ratio of Ki for human HGPRT to Ki for Plasmodium falciparum HGPRT
[2] = (§1) Inhibition of Plasmodium falciparum HGPRT by spectrophotometric analysis in absence of PPi
[3] = (§2) Inhibition of Plasmodium vivax HGPRT by spectrophotometric analysis in presence of 52 uM PPi
[4] = target: T1, Hypoxanthine-guanine phosphoribosyltransferase (Homo sapiens, UniProt P00492); experiment: (§3) Inhibition of human HGPRT by spectrophotometric analysis in absence of PPi
T1 sequence (P00492 whole entry): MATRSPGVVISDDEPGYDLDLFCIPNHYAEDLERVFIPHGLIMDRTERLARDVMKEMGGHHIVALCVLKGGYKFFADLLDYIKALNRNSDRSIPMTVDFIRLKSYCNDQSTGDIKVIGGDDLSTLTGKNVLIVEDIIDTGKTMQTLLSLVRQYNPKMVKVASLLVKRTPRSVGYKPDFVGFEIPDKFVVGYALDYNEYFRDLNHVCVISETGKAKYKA

[5] = (§4) Inhibition of Plasmodium vivax HGPRT by spectrophotometric analysis in absence of PPi
[6] = Selectivity ratio of Ki for human HGPRT to Ki for Plasmodium vivax HGPRT
[7] = (§5) Inhibition of Plasmodium falciparum HGPRT by spectrophotometric analysis in presence of 52 uM PPi
[8] = target: T2, Hypoxanthine-guanine phosphoribosyltransferase (Homo sapiens) (UniProt P00492); experiment: Inhibition of human HGPRT by spectrophotometric analysis in presence of 52 uM PPi
T2 sequence (whole entry): T1 sequence (P00492 whole entry)

[9] = tested on: Plasmodium falciparum; experiment: as §1
[10] = tested on: Plasmodium vivax; experiment: as §2
[11] = target: T2, Hypoxanthine-guanine phosphoribosyltransferase (Homo sapiens); experiment: as §3
[12] = tested on: Plasmodium vivax; experiment: as §4
[13] = tested on: Plasmodium falciparum; experiment: as §5
[14] = target: T2, Hypoxanthine-guanine phosphoribosyltransferase (Homo sapiens); experiment: Inhibition of human HGPRT at >= 30 uM by spectrophotometric analysis in absence of PPi
[15] = target: T2, Hypoxanthine-guanine phosphoribosyltransferase (Homo sapiens); experiment: Inhibition of human HGPRT at >= 30 uM by spectrophotometric analysis in presence of 52 uM PPi
[16] = tested on: Plasmodium vivax; experiment: Inhibition of Plasmodium vivax HGPRT at >= 100 uM by spectrophotometric analysis in absence of PPi
[17] = target: T2, Hypoxanthine-guanine phosphoribosyltransferase (Homo sapiens); experiment: Inhibition of human HGPRT at >= 100 uM by spectrophotometric analysis in absence of PPi
[18] = target: T2, Hypoxanthine-guanine phosphoribosyltransferase (Homo sapiens); experiment: Inhibition of human HGPRT at >= 100 uM by spectrophotometric analysis in presence of 52 uM PPi
[19] = tested on: Plasmodium vivax; experiment: Inhibition of Plasmodium vivax HGPRT at >= 100 uM by spectrophotometric analysis in presence of 52 uM PPi
[20] = tested on: Plasmodium falciparum; experiment: Inhibition of Plasmodium falciparum HGPRT at >= 100 uM by spectrophotometric analysis in absence of PPi
[21] = tested on: Plasmodium falciparum; experiment: Inhibition of Plasmodium falciparum HGPRT at >= 100 uM by spectrophotometric analysis in presence of 52 uM PPi
[22] = tested on: Plasmodium falciparum; experiment: Inhibition of Plasmodium falciparum HGPRT at >= 30 uM by spectrophotometric analysis in presence of 52 uM PPi
[23] = tested on: Plasmodium vivax; experiment: Inhibition of Plasmodium vivax HGPRT at >= 30 uM by spectrophotometric analysis in presence of 52 uM PPi

| Compound | Ratio Ki [1] | Ki [4] | Ratio Ki [6] | inhibition [15] | Ki [2] | Ki [3] | Ki [5] | Ki [7] | also measured |
| --- | --- | --- | --- | --- | --- | --- | --- | --- | --- |
| Nc1nc2c(ncn2CC(O)COCP(=O)(O)O)c(=O)[nH]1 (stereo not given) | 2.8 | 4 µM | 0.4 |  | 1.4 µM | 2.8 µM | 10 µM | 0.5 µM |  |
| O=c1[nH]cnc2c1ncn2/C=C\COCP(=O)(O)O |  |  |  |  |  |  |  |  | inhibition [8]: inactive; inhibition [9]: inactive; inhibition [10]: inactive; inhibition [11]: inactive; inhibition [12]: inactive; inhibition [13]: inactive |
| O=C(O)COC(COCP(=O)(O)O)Cn1cnc2c(=O)[nH]cnc21 (stereo not given) |  |  |  |  |  |  |  |  | inhibition [16]: inactive; inhibition [17]: inactive; inhibition [18]: inactive; inhibition [19]: inactive; inhibition [20]: inactive; inhibition [21]: inactive |

More lines, main results first:

| Ratio Ki [1] | Ki [4] | Ratio Ki [6] | inhibition [15] | Compound | Ki [2] | Ki [3] | Ki [5] | Ki [7] | also measured |
| --- | --- | --- | --- | --- | --- | --- | --- | --- | --- |
| > 50 |  | > 25 | inactive | O=c1[nH]cnc2c1ncn2CC(O)COCP(=O)(O)O (stereo not given) | 2 µM | 0.9 µM | 5 µM | 0.3 µM | inhibition [14]: inactive |
| 1 | 5 µM | 0.2 | inactive | Nc1nc2c(ncn2CC(COCP(=O)(O)O)OCC(=O)O)c(=O)[nH]1 (stereo not given) | 5 µM |  | 27 µM |  | inhibition [22]: inactive; inhibition [23]: inactive |
